Assays:
HL-60(TB) = assay: Cytotoxicity against human HL-60(TB) cells after 48 hrs by SRB assay; type: functional; conditions: HL-60, 48 h
UO-31 = assay: Growth inhibition of human UO31 cells assessed as cell growth at 10^-6 M incubated for 48 hrs by sulforhodamine B assay relative to control; type: functional; conditions: UO-31, 48 h, read-out: Activity
SF-295 = assay: Growth inhibition of human SF295 cells assessed as cell growth at 10^-8 M incubated for 48 hrs by sulforhodamine B assay relative to control; type: functional; conditions: SF-295, 48 h, read-out: Activity
[1] = Antiproliferative activity against HELF cells after 4 days by Coulter counter method; type: cell-based; conditions: Homo sapiens, 96 h
K562 = assay: Growth inhibition of human K562 cells assessed as cell growth at 10^-4 M incubated for 48 hrs by sulforhodamine B assay relative to control; type: functional; conditions: K562, 48 h, read-out: Activity
HCT-15 = assay: Cytotoxicity against human HCT15 cells after 48 hrs by SRB assay; type: functional; conditions: HCT-15, 48 h
PC-3 [2] = assay: Growth inhibition of human PC3 cells assessed as cell growth at 10^-6 M incubated for 48 hrs by sulforhodamine B assay relative to control; type: functional; conditions: PC-3, 48 h, read-out: Activity
SN12C [3] = assay: Growth inhibition of human SN12C cells assessed as cell growth at 10^-6 M incubated for 48 hrs by sulforhodamine B assay relative to control; type: functional; conditions: read-out: Activity
OVCAR-3 = assay: Growth inhibition of human OVCAR3 cells assessed as cell growth at 10^-7 M incubated for 48 hrs by sulforhodamine B assay relative to control; type: functional; conditions: OVCAR-3, 48 h, read-out: Activity
RPMI-8226 = assay: Growth inhibition of human RPMI8226 cells assessed as cell growth at 10^-6 M incubated for 48 hrs by sulforhodamine B assay relative to control; type: functional; conditions: RPMI-8226, 48 h, read-out: Activity
SK-MEL-2 [4] = assay: Growth inhibition of human SK-MEL-2 cells assessed as cell growth at 10^-8 M incubated for 48 hrs by sulforhodamine B assay relative to control; type: functional; conditions: SK-MEL-2, 48 h, read-out: Activity
PC-3 [5] = assay: Growth inhibition of human PC3 cells assessed as cell growth at 10^-5 M incubated for 48 hrs by sulforhodamine B assay relative to control; type: functional; conditions: PC-3, 48 h, read-out: Activity
MOLT-4 = assay: Growth inhibition of human MOLT4 cells assessed as cell growth at 10^-7 M incubated for 48 hrs by sulforhodamine B assay relative to control; type: functional; conditions: MOLT-4, 48 h, read-out: Activity
SK-MEL-28 = assay: Growth inhibition of human SK-MEL-28 cells assessed as cell growth at 10^-8 M incubated for 48 hrs by sulforhodamine B assay relative to control; type: functional; conditions: SK-MEL-28, 48 h, read-out: Activity
NCI/ADR-RES = assay: Cytotoxicity against human NCI-ADR-RES cells after 48 hrs by SRB assay; type: functional
SW-620 = assay: Growth inhibition of human SW620 cells assessed as cell growth at 10^-5 M incubated for 48 hrs by sulforhodamine B assay relative to control; type: functional; conditions: SW-620, 48 h, read-out: Activity
SR = assay: Cytotoxicity against human SR cells after 48 hrs by SRB assay; type: functional
IGROV-1 = assay: Growth inhibition of human IGROV1 cells assessed as cell growth at 10^-4 M incubated for 48 hrs by sulforhodamine B assay relative to control; type: functional; conditions: IGROV-1, 48 h, read-out: Activity
UACC-257 [6] = assay: Growth inhibition of human UACC257 cells assessed as cell growth at 10^-7 M incubated for 48 hrs by sulforhodamine B assay relative to control; type: functional; conditions: UACC-257, 48 h, read-out: Activity
RXF 393 = assay: Growth inhibition of human RXF393 cells assessed as cell growth at 10^-7 M incubated for 48 hrs by sulforhodamine B assay relative to control; type: functional; conditions: RXF 393, 48 h, read-out: Activity
Hs-578T = assay: Growth inhibition of human Hs 578T cells assessed as cell growth at 10^-5 M incubated for 48 hrs by sulforhodamine B assay relative to control; type: functional; conditions: read-out: Activity
MDA-MB-435 = assay: Growth inhibition of human MDA-MB-435 cells assessed as cell growth at 10^-7 M incubated for 48 hrs by sulforhodamine B assay relative to control; type: functional; conditions: MDA-MB-435, 48 h, read-out: Activity
MCF7 = assay: Growth inhibition of human MCF7 cells assessed as cell growth at 10^-5 M incubated for 48 hrs by sulforhodamine B assay relative to control; type: functional; conditions: MCF7, 48 h, read-out: Activity
SNB-75 [7] = assay: Growth inhibition of human SNB75 cells assessed as cell growth at 10^-7 M incubated for 48 hrs by sulforhodamine B assay relative to control; type: functional; conditions: SNB-75, 48 h, read-out: Activity
SN12C [8] = assay: Growth inhibition of human SN12C cells assessed as cell growth at 10^-5 M incubated for 48 hrs by sulforhodamine B assay relative to control; type: functional; conditions: read-out: Activity
SK-OV-3 = assay: Cytotoxicity against human SKOV3 cells after 48 hrs by SRB assay; type: functional; conditions: SK-OV-3, 48 h
SNB-75 [9] = assay: Growth inhibition of human SNB75 cells assessed as cell growth at 10^-6 M incubated for 48 hrs by sulforhodamine B assay relative to control; type: functional; conditions: SNB-75, 48 h, read-out: Activity
SNB-19 = assay: Growth inhibition of human SNB19 cells assessed as cell growth at 10^-7 M incubated for 48 hrs by sulforhodamine B assay relative to control; type: functional; conditions: SNB-19, 48 h, read-out: Activity
MDA-MB-231 = assay: Cytotoxicity against human MDA-MB-231 cells after 48 hrs by SRB assay; type: functional; conditions: MDA-MB-231, 48 h
TK-10 = assay: Growth inhibition of human TK10 cells assessed as cell growth at 10^-8 M incubated for 48 hrs by sulforhodamine B assay relative to control; type: functional; conditions: TK-10, 48 h, read-out: Activity
SN12C [10] = assay: Growth inhibition of human SN12C cells assessed as cell growth at 10^-4 M incubated for 48 hrs by sulforhodamine B assay relative to control; type: functional; conditions: read-out: Activity
SK-MEL-2 [11] = assay: Growth inhibition of human SK-MEL-2 cells assessed as cell growth at 10^-7 M incubated for 48 hrs by sulforhodamine B assay relative to control; type: functional; conditions: SK-MEL-2, 48 h, read-out: Activity
UACC-257 [12] = assay: Growth inhibition of human UACC257 cells assessed as cell growth at 10^-8 M incubated for 48 hrs by sulforhodamine B assay relative to control; type: functional; conditions: UACC-257, 48 h, read-out: Activity
[13] = read-out: pLC50 (the source's name) (converted)
[14] = read-out: LC50 (the source's name)

## C#C[C@@]1(O)[C@@H](CO)O[C@@H](n2cc(F)c3c(N)ncnc32)[C@@H]1O
HL-60(TB); read-out: TGI
  TGI: 3.53 µM
HL-60(TB); read-out: pGI50 (converted)
  GI50: 0.437 µM
HL-60(TB); [13]
  CC50: > 100 µM
HL-60(TB); read-out: pTGI (converted)
  TGI: 3.55 µM
UO-31
  growth at 1 µM: 23%
SF-295
  growth at 0.01 µM: 98%
[1]
  IC50: 0.076 µM
K562
  growth at 100 µM: 6%
HCT-15; read-out: TGI
  TGI: 3.19 µM
HCT-15; read-out: pGI50 (converted)
  GI50: 0.295 µM
HCT-15; [13]
  CC50: > 100 µM
HCT-15; read-out: pTGI (converted)
  TGI: 3.16 µM
PC-3 [2]
  growth at 1 µM: 11%
SN12C [3]
  growth at 1 µM: 17%
OVCAR-3
  growth at 0.1 µM: 107%
RPMI-8226
  growth at 1 µM: 1%
SK-MEL-2 [4]
  growth at 0.01 µM: 103%
PC-3 [5]
  growth at 10 µM: -10%
MOLT-4
  growth at 0.1 µM: 86%
SK-MEL-28
  growth at 0.01 µM: 102%
NCI/ADR-RES; read-out: TGI
  TGI: 11.3 µM
NCI/ADR-RES; read-out: pGI50 (converted)
  GI50: 0.309 µM
NCI/ADR-RES; [13]
  CC50: > 100 µM
NCI/ADR-RES; read-out: pTGI (converted)
  TGI: 11.2 µM
SW-620
  growth at 10 µM: -5%
SR; [14]
  CC50: > 100 µM
SR; read-out: TGI
  TGI: > 100 µM
SR; read-out: pGI50 (converted)
  GI50: 0.186 µM
SR; read-out: pTGI
  TGI: > 100 µM
IGROV-1
  growth at 100 µM: -38%
UACC-257 [6]
  growth at 0.1 µM: 85%
RXF 393
  growth at 0.1 µM: 102%
Hs-578T
  growth at 10 µM: 18%
MDA-MB-435
  growth at 0.1 µM: 86%
MCF7
  growth at 10 µM: 1%
SNB-75 [7]
  growth at 0.1 µM: 107%
SN12C [8]
  growth at 10 µM: -8%
SK-OV-3; [14]
  CC50: > 100 µM
SK-OV-3; read-out: TGI
  TGI: 2.09 µM
SK-OV-3; read-out: pGI50 (converted)
  GI50: 0.288 µM
SK-OV-3; read-out: pTGI (converted)
  TGI: 2.09 µM
SNB-75 [9]
  growth at 1 µM: 52%
SNB-19
  growth at 0.1 µM: 79%
MDA-MB-231; [14]
  CC50: > 100 µM
MDA-MB-231; read-out: TGI
  TGI: 2.98 µM
MDA-MB-231; read-out: pGI50 (converted)
  GI50: 0.38 µM
MDA-MB-231; read-out: pTGI (converted)
  TGI: 2.95 µM
TK-10
  growth at 0.01 µM: 95%
SN12C [10]
  growth at 100 µM: -24%
SK-MEL-2 [11]
  growth at 0.1 µM: 101%
UACC-257 [12]
  growth at 0.01 µM: 91%
